Measured values reported in US20130273546A1, “LOW TEMPERATURE ENZYME AND METHOD THEREOF” (UNIVERSITI PUTRA MALAYSIA, priority 2009, published 2013).

B1: recombinant PI12 protease: cold-adapted serine protease of L. antarcticum PI12 (SEQ ID NO: 2) expressed in Pichia pastoris (protein, listed as Leucosporidium antarcticum)
chain: MLFLPVLLLLLPGVTAFLNPVTNRATNAISSTQYLSNAYILELDLSTPGLVKRDSTPDSILEDVLTSVGRNGIKYQLRHRFISPTLFHGASITVPPGISRSQIASLRGIKRVWPVRKFSRPSAVVDADGGGSGFSGSPIKAALMGVKELGKRANAYAGDTFGPHVMTGVNETHEAGLLGAGIKIGVLDTGVDYLNPILGGCFGPGCHMSFGYDLVGDDYDGDNAPVPDVDPFASCDPHGTHVTGIIGALPNAFGFTGVAPAATLGHYRVFGCTGFVGEDIILAGLMRGVEDNCNVLTLSLGGPGGWVKGTPASILIDQIEAQGILVTVATGNSGAEGMFFSESPASTINGLSIASTDVTDLIAYNATVSGQPAIPYLSATPLNVVANSFRVHFTSTDPNNPVDACSPLPAGAPDFANYVTVVQRGTCTFVTKYQNVLNAGGKIVLLYNSEGAGNLPYLTPNGVGIDAVAGLRRSDGLKLLSYYQNANKRLTLRFPKGKIVAGLTDTITGGLISGYSTFGPTNDLYGQPTLSAPGGNILSTFPLSEGGVAVISGTSMSCPFVAGSAAVLMAARASENLTPLEIRSLLTTTAKLTPVSLLGSTPLVSVIRQGGGLVQVAKALAAKTLISPHELLLNDTANANYVQTIKIKNTNSWAMKYTFSSAVAQGLGTFDASGDILPTLDPVAVSGAQATVAFNTRILSVAPGATGSVVATITPPVLPVADAARFPIFSGWIRVNGQGARDSSRNEAYTVPYFGLAAKMIDMQVLDTTETIYGPGYAYPFVIDDAIGDIQSTTTSYSRNLGPTVFARFATGTLHYSLDLVLADIAFTPTYPNSSPATRFVKRSLTQHTSAASHLAKRRVSIATINPKATLVADRQLHSDVPIEGNIFTQPFTGRDYLVDAAPTGSTDRTVTFNGQYAENGLVRTAVTGTSYRFLLRALKISGDAMYEDQYESWLSLPFSFRA
B2: Cold-adapted protease PI12: protease from Leucosporidium antarcticum strain PI12 (NCYC 3391), amino acid sequence SEQ ID NO: 2, GenBank CAQ76821 (protein, listed as Leucosporidium antarcticum)
chain: B1 chain

Experiments:
[1] = test system: Leucosporidium antarcticum strain PI12; experiment: Growth of the Antarctic isolate on solid media with antibiotics; type: cell-based; conditions: 10 days at 4° C.
Method: Antarctic microorganism isolated strain was grown on different types of solid media (nutrient agar, sabouroud dextrose agar and potato dextrose agar) and several antibiotics for 10 days at 4° C. and the culture characteristics (colony colour, shape, texture) were determined. Simple staining was performed to identify the cell morphology, arrangement and size of the psychrophilic isolate PI12. Scanning electron microscopy (SEM) and transmission electron microscopy (TEM) were also conducted to study the surface features and the internal ultrastructure in thin sections of the PI12 cells. […] The growth for this microorganism was best at 4° C. and decreased through the temperature range tested (4° C.-20° C.) but no growth at over 20° C. […] The Antarctic microorganism strain PI12 was grown and screened qualitatively for the protease production on skim milk agar. The plate was incubated at 4° C. for 10 days. Protease was excreted out of the cells into the surrounding media, catalyzing the breakdown of casein and formed clearing zones around the growth area.

azocasein = experiment: Protease activity assay with azocasein as substrate (modified method of Brock et al.), culture supernatants; type: biochemical; conditions: GpPro2 20.3 U/mL versus wild-type 1.0 U/mL
Method: After 10 days of incubation, the supernatant was assayed for protease activity. Protease activity was determined by the modified method of Brock et al. (1982). Azocasein (0.5%, 1 mL) was dissolved in 0.1 M Tris-HCl-2 mM CaCl2 pH 7 was pipetted into vials and pre-incubated at 4° C. The reaction was initiated by addition of 100 μL of enzyme solution for 30 min (unless stated otherwise). An equal volume of 10% (w/v) trichloroacetic acid (TCA) was added to terminate the reaction and the mixture was allowed to stand at room temperature for 30 min before centrifugation in eppendorf microcentrifuge at 13,000×g for 10 min. The supernatant was removed and mixed with an equal volume of 1 N NaOH. The absorbance was read at 450 nm using UV/Visible spectrophotometer Ultraspec 2100 pro (Amersham Biosciences, USA). One unit of azocaseinase activity was defined as the amount of enzyme activity which produces an absorbance change of 0.001 per min at 4° C. under the standard assay condition. For control, the enzyme was added at the end of the incubation period. […]
Assay activity of recombinant PI12 protease was determined by the modified method of Brock et a (1982) the assay activity for recombinant PI12 protease was performed at 15° C.

[2] = Temperature profile and storage stability of the protease activity; type: biochemical

Molecule | resistance of the microorganism toward antibiotic [1] | also measured
CC1(C)S[C@@H]2[C@H](NC(=O)[C@H](N)c3ccccc3)C(=O)N2[C@H]1C(=O)O [ampicillin] | resistance | –
CN[C@@H]1[C@H](O[C@H]2[C@H](O[C@H]3[C@H](O)[C@@H](O)[C@H](N=C(N)N)[C@@H](O)[C@@H]3N=C(N)N)O[C@@H](C)[C@]2(O)C=O)O[C@@H](CO)[C@H](O)[C@H]1O [streptamycin] | resistance | –
O=C(N[C@H](CO)[C@H](O)c1ccc([N+](=O)[O-])cc1)C(Cl)Cl [chloramphenicol] | resistance | –
B1 | – | recombinant protease activity relative to that produced by wild-type host (azocasein): 20.3 fold
B2 | – | optimum temperature [2]: 4 [deg.] C.; enzyme activity retained ([2]; after incubating the enzyme at 4[deg.] C. for about 10 days): One hundred
